# ChEMBL document CHEMBL1201862, “PubChem BioAssay data set” (2004)
# Activity calls are given as the source filed them. For most assays here, no stated cut-off is given here; in the data, actives have a measured EC50 and inactives only a lower limit.
# How the values were obtained:
# [1] = biological target: T1, Corticotropin-releasing factor receptor 2/Corticotropin-releasing factor-binding protein (Homo sapiens, UniProt P24387+Q13324); test: activators of CRF receptor 2 with binding protein – uHTS hits, confirmation (AID 602473); format: functional; details: read-out: EC50_Mean
# T1 sequence (Q13324 whole entry): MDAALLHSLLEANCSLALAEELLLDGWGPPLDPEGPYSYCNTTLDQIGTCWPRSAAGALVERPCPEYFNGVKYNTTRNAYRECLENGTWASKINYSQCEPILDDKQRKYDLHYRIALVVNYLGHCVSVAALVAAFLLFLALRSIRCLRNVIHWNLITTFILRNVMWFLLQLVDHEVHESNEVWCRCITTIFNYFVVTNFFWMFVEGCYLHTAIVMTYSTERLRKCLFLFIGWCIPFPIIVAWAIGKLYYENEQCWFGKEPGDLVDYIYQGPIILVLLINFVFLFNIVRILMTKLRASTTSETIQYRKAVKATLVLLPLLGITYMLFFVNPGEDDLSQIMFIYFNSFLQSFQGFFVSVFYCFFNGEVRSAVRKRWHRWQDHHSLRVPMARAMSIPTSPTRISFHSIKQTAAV
# T1 sequence (P24387 whole entry): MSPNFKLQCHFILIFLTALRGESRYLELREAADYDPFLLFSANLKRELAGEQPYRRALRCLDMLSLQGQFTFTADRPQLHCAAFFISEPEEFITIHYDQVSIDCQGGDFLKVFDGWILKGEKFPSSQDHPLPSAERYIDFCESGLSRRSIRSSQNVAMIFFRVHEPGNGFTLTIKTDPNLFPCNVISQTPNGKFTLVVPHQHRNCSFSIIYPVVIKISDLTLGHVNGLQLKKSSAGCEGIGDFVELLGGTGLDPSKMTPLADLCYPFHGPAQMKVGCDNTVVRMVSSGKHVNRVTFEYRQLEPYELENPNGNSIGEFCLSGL
# [2] = NIH-3T3 fibroblast cytotoxicity, dose response, cytotoxicity control, cell-based, fluorescence, Alamar Blue, secondary assay (AID 2327); format: functional;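 further: NIH-3T3 mouse fibroblasts cultured with fluconazole at 8 µg/mL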
# [3] = C. albicans growth with fluconazole, confirmation, fluorescence, retest (AID 2467); format: functional, cell-based
# [4] = inhibitors of intracellular T. cruzi replication, confirmation, NIH3T3 host cells, beta-gal luminescence (AID 2044); format: functional, cell-based;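 further: intracellular parasites grown in NIH/3T3 mouse fibroblasts as host cells; luminescent beta-galactosidase reporter signal from transgenic T. cruzi replicating inside host cells; inhibitors lower the luminescence signal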
# [5] = cytotoxicity toward NIH3T3 fibroblasts, dose response, counter-screen, cell-based, ATP luminescence, mouse fibroblasts (AID 2010); format: functional;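 further: cells exposed to compound for about 90 hours before reading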
# [6] = Luminescence Cell-Based Dose Retest to Confirm Inhibitors of Cancer Stem Cells. [Related pubchem assays (depositor defined):AID2717, AID2721]; format: functional; details: Homo sapiens
# H9c2 = test: cells; format: functional, cell-based; details: Rattus norvegicus, H9c2, Myocardium;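 further: confirmatory concentration-response retest of ultra-high-throughput screening hits for modulation of myocardial damage; cell death induced by hydrogen peroxide oxidative stress; compound pretreatment for 60 min then peroxide exposure for 2 h; potency is for protecting the cells against peroxide damage rather than for killing them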
# Fatty acid synthase = Fatty acid synthase (Homo sapiens, UniProt P49327); test: FAS thioesterase domain inhibitors, dose response, biochemical, kinetic fluorescence intensity (AID 624326); format: functional;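 further: rate of fluorescence rise from hydrolysis of a fluorogenic O-methyl fluorescein ester substrate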
# Fatty acid synthase, sequence (P49327 whole entry, the tested form may be a part): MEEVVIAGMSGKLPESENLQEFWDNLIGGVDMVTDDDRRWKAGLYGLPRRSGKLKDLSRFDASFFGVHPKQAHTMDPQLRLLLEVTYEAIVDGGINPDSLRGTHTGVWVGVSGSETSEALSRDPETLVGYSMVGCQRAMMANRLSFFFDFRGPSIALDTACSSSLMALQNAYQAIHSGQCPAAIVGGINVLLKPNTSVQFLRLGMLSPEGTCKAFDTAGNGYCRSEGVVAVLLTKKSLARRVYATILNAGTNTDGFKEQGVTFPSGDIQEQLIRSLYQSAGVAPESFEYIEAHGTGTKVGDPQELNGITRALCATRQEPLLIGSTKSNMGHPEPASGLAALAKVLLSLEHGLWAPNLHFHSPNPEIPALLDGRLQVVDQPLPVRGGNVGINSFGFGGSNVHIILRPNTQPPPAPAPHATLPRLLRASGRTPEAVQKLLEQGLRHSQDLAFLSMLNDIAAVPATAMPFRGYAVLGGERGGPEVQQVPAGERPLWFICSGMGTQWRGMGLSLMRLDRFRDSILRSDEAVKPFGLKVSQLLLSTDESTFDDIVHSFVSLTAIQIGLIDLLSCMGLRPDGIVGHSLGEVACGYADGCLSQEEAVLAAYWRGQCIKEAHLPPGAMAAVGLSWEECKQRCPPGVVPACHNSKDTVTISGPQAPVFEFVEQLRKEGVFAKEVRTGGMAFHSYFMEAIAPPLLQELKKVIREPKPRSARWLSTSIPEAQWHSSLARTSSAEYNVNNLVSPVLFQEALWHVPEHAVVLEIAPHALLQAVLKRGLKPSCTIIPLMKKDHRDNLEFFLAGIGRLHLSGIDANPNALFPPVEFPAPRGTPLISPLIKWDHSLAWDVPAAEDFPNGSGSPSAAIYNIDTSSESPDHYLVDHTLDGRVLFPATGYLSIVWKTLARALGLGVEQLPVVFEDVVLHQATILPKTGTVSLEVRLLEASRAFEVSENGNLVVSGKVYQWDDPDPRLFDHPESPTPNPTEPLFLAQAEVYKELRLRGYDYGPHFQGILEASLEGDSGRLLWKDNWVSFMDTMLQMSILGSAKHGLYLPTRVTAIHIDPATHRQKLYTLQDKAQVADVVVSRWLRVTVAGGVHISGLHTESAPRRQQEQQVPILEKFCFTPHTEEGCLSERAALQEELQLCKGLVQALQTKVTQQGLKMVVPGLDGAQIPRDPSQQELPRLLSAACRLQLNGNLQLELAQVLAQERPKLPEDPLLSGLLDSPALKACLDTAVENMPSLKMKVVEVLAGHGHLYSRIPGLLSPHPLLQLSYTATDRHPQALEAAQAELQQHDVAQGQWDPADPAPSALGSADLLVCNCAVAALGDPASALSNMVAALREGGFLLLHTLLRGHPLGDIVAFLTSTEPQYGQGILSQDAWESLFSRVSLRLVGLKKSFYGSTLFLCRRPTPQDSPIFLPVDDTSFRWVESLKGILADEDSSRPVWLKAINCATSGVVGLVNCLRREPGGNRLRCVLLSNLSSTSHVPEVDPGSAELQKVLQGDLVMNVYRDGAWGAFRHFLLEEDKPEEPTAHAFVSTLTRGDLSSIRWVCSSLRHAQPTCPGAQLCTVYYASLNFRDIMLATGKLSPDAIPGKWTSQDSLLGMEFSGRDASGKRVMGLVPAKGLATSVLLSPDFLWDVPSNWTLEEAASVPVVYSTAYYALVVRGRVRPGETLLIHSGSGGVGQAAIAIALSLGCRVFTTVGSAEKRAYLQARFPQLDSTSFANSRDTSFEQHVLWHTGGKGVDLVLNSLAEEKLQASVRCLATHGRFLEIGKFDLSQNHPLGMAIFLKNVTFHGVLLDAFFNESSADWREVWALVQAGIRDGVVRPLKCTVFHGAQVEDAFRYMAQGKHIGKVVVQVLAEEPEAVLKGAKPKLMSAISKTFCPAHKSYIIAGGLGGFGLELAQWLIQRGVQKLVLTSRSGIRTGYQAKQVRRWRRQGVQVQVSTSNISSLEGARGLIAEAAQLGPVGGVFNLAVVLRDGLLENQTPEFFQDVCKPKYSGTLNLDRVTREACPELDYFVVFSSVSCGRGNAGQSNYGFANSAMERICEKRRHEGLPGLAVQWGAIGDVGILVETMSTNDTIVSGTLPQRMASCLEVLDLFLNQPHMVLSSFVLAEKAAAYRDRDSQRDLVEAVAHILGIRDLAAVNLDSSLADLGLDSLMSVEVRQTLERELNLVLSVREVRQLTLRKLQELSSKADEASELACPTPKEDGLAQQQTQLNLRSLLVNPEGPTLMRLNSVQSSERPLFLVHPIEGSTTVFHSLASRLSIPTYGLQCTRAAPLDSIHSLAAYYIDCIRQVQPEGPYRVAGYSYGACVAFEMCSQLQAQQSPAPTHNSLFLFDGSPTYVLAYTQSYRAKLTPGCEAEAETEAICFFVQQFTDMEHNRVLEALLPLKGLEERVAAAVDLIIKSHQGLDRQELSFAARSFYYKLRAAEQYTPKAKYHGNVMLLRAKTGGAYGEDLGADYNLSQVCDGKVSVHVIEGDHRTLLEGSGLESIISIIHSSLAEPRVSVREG
# [7] = microbe, parasite or virus in culture; format: functional; details: Mycobacterium tuberculosis
# [8] = HepG2 cell cytotoxicity, dose response, cytotoxicity control, plate reader, cherry-pick, antagonist series (AID 743416); format: functional, cell-based
# [9] = MC4R antagonists, dose response, counter-screen for LGR2 antagonist project, cell-based, plate reader, cherry pick (AID 743444); format: functional;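 further: transfected HEK 293 cells stimulated with alpha-MSH peptide; potency of inhibitors of the alpha-MSH evoked signal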
# Nonstructural protein 1 = Nonstructural protein 1 (Influenza A virus, UniProt Q194T2); format: functional, Influenza A virus (A/California/07/2009(H1N1))
# Nonstructural protein 1, sequence (Q194T2 whole entry): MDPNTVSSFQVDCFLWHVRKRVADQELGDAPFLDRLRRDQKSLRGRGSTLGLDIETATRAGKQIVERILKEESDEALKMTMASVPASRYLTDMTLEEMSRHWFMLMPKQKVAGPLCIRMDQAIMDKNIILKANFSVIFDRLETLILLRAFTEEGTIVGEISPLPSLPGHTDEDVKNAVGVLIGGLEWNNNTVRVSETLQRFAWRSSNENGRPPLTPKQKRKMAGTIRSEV
# [10] = biological target: T2, Replicative DNA helicase DnaB (Mycobacterium tuberculosis, UniProt P9WMR3); test: DnaB intein splicing inhibitors, dose response, biochemical, cell-free fluorescence (AID 449749); format: functional
# T2 sequence (P9WMR3 whole entry): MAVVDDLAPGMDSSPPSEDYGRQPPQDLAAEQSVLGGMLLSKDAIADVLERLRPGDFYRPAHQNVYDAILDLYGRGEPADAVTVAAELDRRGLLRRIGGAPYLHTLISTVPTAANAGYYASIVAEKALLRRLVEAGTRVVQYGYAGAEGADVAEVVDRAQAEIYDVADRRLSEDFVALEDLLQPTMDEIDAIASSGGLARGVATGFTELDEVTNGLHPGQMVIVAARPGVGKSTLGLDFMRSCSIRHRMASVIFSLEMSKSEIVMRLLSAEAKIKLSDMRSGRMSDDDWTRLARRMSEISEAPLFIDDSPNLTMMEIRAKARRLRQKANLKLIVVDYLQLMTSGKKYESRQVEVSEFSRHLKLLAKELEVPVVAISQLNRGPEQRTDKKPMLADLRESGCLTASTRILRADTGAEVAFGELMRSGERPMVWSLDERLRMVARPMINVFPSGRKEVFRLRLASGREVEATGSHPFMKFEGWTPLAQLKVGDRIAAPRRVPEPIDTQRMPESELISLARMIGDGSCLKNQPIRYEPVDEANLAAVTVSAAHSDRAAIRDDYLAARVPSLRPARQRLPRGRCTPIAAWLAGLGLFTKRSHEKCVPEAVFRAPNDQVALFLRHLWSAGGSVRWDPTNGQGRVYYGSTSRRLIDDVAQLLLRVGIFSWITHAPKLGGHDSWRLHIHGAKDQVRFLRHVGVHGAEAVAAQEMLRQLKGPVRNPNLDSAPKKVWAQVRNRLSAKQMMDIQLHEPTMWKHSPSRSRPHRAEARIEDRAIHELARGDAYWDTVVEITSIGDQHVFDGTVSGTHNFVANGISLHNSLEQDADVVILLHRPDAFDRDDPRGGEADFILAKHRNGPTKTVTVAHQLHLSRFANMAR
# Protein RecA = biological target: T3, Protein RecA (Mycobacterium tuberculosis, UniProt P9WHJ3); test: Fluorescence Cell-Free Homogeneous Dose Retest to Identify Inhibitors of RecA-Intein Splicing Activity. [Related pubchem assays (depositor defined):AID2097, AID2223, AID489010, AID492950]; format: functional
# T3 sequence (P9WHJ3 whole entry): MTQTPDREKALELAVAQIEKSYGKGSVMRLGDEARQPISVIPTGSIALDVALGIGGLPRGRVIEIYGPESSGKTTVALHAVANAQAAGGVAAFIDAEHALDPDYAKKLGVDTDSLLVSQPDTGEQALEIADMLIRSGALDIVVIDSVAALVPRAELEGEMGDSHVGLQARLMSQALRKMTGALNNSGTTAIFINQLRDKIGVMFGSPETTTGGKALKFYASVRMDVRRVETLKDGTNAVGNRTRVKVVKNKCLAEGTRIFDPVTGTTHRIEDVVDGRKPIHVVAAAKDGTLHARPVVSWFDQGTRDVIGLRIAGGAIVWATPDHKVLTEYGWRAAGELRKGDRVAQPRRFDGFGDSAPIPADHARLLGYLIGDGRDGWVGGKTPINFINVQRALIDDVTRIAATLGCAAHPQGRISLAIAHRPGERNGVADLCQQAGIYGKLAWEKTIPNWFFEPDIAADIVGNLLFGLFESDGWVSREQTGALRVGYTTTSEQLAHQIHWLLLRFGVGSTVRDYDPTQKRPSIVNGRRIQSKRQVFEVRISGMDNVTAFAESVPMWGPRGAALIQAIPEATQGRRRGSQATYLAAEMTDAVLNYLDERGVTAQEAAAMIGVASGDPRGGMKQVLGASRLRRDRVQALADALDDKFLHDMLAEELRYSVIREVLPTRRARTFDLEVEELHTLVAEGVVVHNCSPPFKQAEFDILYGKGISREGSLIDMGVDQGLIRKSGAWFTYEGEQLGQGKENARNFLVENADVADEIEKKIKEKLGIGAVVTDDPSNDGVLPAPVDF
# [11] = inhibitors of firefly luciferase expression or activity, dose response, H4 neuroglioma cells, luminescence (AID 1990); format: functional, cell-based
# [12] = Luminescence Cell-Based Dose Response HTS to Identify Inhibitors of 5'UTR Stem-Loop Driven Prion Protein mRNA Translation in H4 Neuroglioblastoma Cells. [Related pubchem assays: 1827 (Project Summary), 1813 (Primary HTS)]; format: functional
# [13] = inhibitors of SNCA 5'UTR-driven reporter translation, confirmation, H4 neuroglioma cells, luminescence (AID 1988); format: functional, cell-based
# [14] = test system: Streptococcus sp. 'group A'; test: growth inhibition of control SK(-) GAS strain, dose response, counter-screen for streptokinase expression inhibitor project, luminescence, kanamycin, BacTiterGlo, confirmation (AID 1900); format: functional, organism-based
# Streptococcus = test: Group A Streptococcus viability loss, dose response, counter-screen for streptokinase expression inhibitor project, luminescence, BacTiterGlo (AID 1915); format: functional, organism-based;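 further: potency for reduction of bacterial viability or growth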
# Streptokinase A = biological target: T4, Streptokinase A (Streptococcus pyogenes serotype M1, UniProt P10520); test: S. pyogenes streptokinase expression inhibitors, potency, dose response, plasminogen activation absorbance, OD405 (AID 1914); format: functional, Streptococcus pyogenes M1 GAS;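 further: secreted streptokinase activity via plasminogen activation per viability signal from cell pellet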
# T4 sequence (P10520 whole entry): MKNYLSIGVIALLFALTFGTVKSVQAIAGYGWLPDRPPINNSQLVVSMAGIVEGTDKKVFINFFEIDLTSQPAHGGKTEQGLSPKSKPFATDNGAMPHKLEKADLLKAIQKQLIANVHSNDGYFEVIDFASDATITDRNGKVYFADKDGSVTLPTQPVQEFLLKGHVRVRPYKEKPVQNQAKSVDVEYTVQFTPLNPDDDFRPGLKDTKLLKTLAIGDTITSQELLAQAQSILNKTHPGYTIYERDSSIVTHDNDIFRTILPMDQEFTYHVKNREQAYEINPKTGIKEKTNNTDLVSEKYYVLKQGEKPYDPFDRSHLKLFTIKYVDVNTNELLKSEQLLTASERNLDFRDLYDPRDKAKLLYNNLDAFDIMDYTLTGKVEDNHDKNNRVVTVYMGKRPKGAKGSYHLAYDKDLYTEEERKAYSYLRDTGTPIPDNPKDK
smiles,measurement,setting,value
Cc1cc(C)nc(NC(N)=Nc2ccc(CC(=O)OC(C)C)cc2)n1,EC50,[1],2.56 µM (active)
CC(C)OC(=O)C(=O)NNc1ccccc1,EC50,[2],1.21 µM (active)
same,EC50,[3],> 38 µM (not active)
same,EC50,[4],0.792 µM (active)
same,EC50,[5],< 6 µM (inconclusive)
same,AC50,[6],0.731 µM (active)
CC(OC(=O)CCc1nc(O)c2ccccc2n1)C(=O)NC1CCCC1 (configuration not stated),IC50,H9c2,30.3 µM (inactive)
CCCCN(Cc1nc(O)c2ccccc2n1)C(=O)CN1C(=O)NC2(CCCCC2)C1=O,IC50,H9c2,16.4 µM (active)
COc1ccc(CNC(=O)c2ccc(Cn3nc(C)c([N+](=O)[O-])c3C)o2)cc1,IC50,H9c2,> 79 µM (inactive)
Cc1cc(-c2cccs2)c2c(N)c(C(=O)c3ccc4c(c3)OCO4)sc2n1,EC50,[1],7.29 µM (active)
COc1ccc(CNC(=O)/C=C/c2cc([N+](=O)[O-])ccc2OC(F)F)cc1OC,IC50,Fatty acid synthase,3.28 µM (active)
Cc1ccc(C(C(=O)NCc2ccccc2)N(Cc2ccco2)C(=O)c2snc(C(N)=O)c2N)o1 (configuration not stated),IC50,H9c2,> 79 µM (inactive)
Oc1ccc(NCc2nnc(O)c3ccccc23)cc1,IC50,H9c2,> 79 µM (inactive)
CCCCN(C)C(=O)Cc1c(OC)ccc2cc(Br)ccc12,CC50,[7],> 40 µM (active)
Cc1cc(N2C(=O)C(O)=C(C(=O)c3cc4ccccc4o3)C2c2cccs2)no1 (configuration not stated),EC50,[2],70.9 µM (active)
same,EC50,[3],1.17 µM (active)
Nc1nonc1-n1nnc(C(=O)N/N=C/c2ccccn2)c1CNc1ccccc1,IC50,H9c2,18.1 µM (active)
CCC(c1nnnn1Cc1ccco1)N(Cc1cc2cc(C)cc(C)c2nc1O)CC1CCCO1 (configuration not stated),IC50,H9c2,> 79 µM (inactive)
C[C@H](CO)N1C[C@H](C)[C@H](CN(C)C(=O)Cc2ccccc2)OCCCC[C@H](C)Oc2ccc(NC(=O)Nc3ccc(C(F)(F)F)cc3)cc2C1=O,AC50,[8],35 µM (active)
same,AC50,[9],4.79 µM (active)
CCOc1ccc(N2CCc3c(C)nc(SC)nc32)cc1,CC50,[7],34.9 µM (active)
CCOC(=O)c1ccc(NC(=O)Nc2ccn(C)n2)cc1,EC50,[2],> 150 µM (inconclusive)
same,EC50,[3],4.84 µM (active)
O=C(CCS(=O)(=O)c1ccccc1)Nc1nnc(C(F)(F)F)s1,EC50,[2],> 160 µM (inactive)
same,EC50,[3],0.302 µM (active)
O=C(O)c1cccc(N/N=C(\N=Nc2ccccc2)c2ccccc2)c1,AC50,[6],2.45 µM (active)
same,IC50,Nonstructural protein 1,34.5 µM (active)
same,AC50,[10],7.75 µM (active)
same,EC50,Protein RecA,51.1 µM (active)
Cc1cccc(OCCn2nc(C(=O)O)c3ccccc3c2=O)c1,IC50,H9c2,> 79 µM (inactive)
O=C(Nc1cccc(/N=C/c2cc(Cl)cc(Br)c2O)c1)c1ccco1,IC50,H9c2,12.3 µM (active)
CCCOP(=O)(OCCC)c1c([N+](=O)[O-])cc(C(F)(F)F)cc1[N+](=O)[O-],CC50,[7],24.2 µM (active)
Cc1ccc(NS(=O)(=O)c2ccc(C(=O)N3CCCC(C(F)(F)F)C3)cc2)cc1 (configuration not stated),EC50,[1],5.17 µM (active)
COC(=O)c1scc(C)c1NC(=O)c1ccccc1F,EC50,[1],> 53 µM (inactive)
COc1ccccc1C(=O)NCC(=O)N/N=C/c1cc(Br)ccc1OC(=O)/C=C\c1ccco1,EC50,[11],11.9 µM (active)
same,EC50,[12],12 µM (active)
same,EC50,[13],11 µM (active)
same,IC50,H9c2,> 79 µM (inactive)
Cc1c(C(=O)Nc2nc3ccccc3[nH]2)oc2c(Cl)cccc12,EC50,[14],1.72 µM (active)
same,EC50,[4],1.68 µM (active)
same,CC50,[7],32.4 µM (active)
same,EC50,[5],> 60 µM (not active)
same,EC50,Streptococcus,8.37 µM (active)
CCc1noc(C)c1C(=O)Nc1nc(-c2ccc(F)cc2)c(C)s1,CC50,[7],> 40 µM (active)
CCCCCn1c(N)c(-c2nc3ccccc3s2)c2c([N+](=O)[O-])nn(CC)c(=O)c21,EC50,[14],6.03 µM (active)
same,EC50,Streptokinase A,> 150 µM (not active)
same,EC50,Streptococcus,> 150 µM (not active)
same,IC50,Nonstructural protein 1,> 50 µM (active)
O=C(CC(NCCN1CCOCC1)C(=O)O)Nc1cccc(Cl)c1 (configuration not stated),EC50,[2],86.4 µM (active)
same,EC50,[3],> 38 µM (not active)
CC1(C)CS/C(=N\Cc2ccccc2)N1C(=O)c1cccc([N+](=O)[O-])c1,EC50,[1],7.16 µM (active)
O=C(CCc1nc(O)c2ccccc2n1)NNC(=O)c1ccccc1Cl,IC50,H9c2,16.2 µM (active)
